From US20090047278A1, “Novel Combinational Use of Sulfonamide Compound” (Eisai R & D Management Co., Ltd., priority 2005, published 2009)
pIC50: −log10 of the molar value.

Experiments:
HCT116 cells = assay: DNA microarray analysis of gene expression changes, correlation and cluster analysis (Example 8); assay type: cell-based, human; details: HCT116, 24 hours, at twice the 50% growth inhibitory concentration; different from profiles of the other six compounds
Experimental: HCT116 cells were cultured in an RPMI-1640 medium supplemented with 10% fetal bovine serum, 100 units/ml penicillin and 100 μg/ml streptomycin. The following cultivation and compound treatment were carried out in an incubator at 5% CO2 and 37° C. HCT116 cells were seeded in 10 cm-diameter cell culture dishes at 2.0×10^6 cells/dish, cultured for 24 hours and subjected to the following compound treatment.
In this example, changes in the gene expression of HCT116 cells upon treatments with 12 compounds, i.e., E7820 (0.16 μM), E7070 (0.26 μM), LY186641 (59 μM), LY295501 (24 μM), LY-573636 (9.6 μM), CQS (4.0 μM), MST16 (100 μM), etoposide (3.6 μM), ethoxzolamide (410 μM), capsaicin (280 μM), trichostatin A (0.16 μM) and kenpaullone (7.1 μM) were examined.
The concentration of each compound used for the treatment was set to twice the 50% growth inhibitory concentration of each compound to the HCT116 cells (based on three days of antiproliferative activity using MTT). The cells were collected 24 hours after the treatment at the concentration indicated in parentheses following each compound name above. Similarly, cells cultured for 24 hours without the addition of any compound were also collected.
Total RNA extraction from the collected cells was performed using TRIZOL reagent (Invitrogen) according to the attached instruction.
Gene expression analysis using a DNA microarray was carried out in the same manner as “(2) Analysis of gene expression using DNA microarray” in Example 7.
This example was conducted for each sample in duplicate (for the convenience of the experiment, samples were given branch numbers like control-1, control-2, E7070-1, E7070-2 and so on for distinction). Then, GeneChip (Affymetrix) system (Human Focus array) was used for analyzing changes in the gene expression induced by each compound.
Twenty-six “.cel” files obtained in this example (13 samples (a control+12 compounds)×2) were subjected to RMA method (robust multi-array average method (Biostatistics (2003), 4, 249-264)) for normal distribution at probe level, and then the logarithm value of the signal intensity at gene level was calculated. Next, the logarithm value of the signal intensity of the untreated group (control-1) was subtracted from the logarithm value of the signal intensity of the compound-treated group for each gene to obtain the logarithm value of the signal ratio of the compound-treated group to control-1. Then, cosine correlation coefficients were calculated as correlation coefficients between the experiments (FIG. 9). Based on these correlation coefficients, hierarchical cluster analysis was performed according to UPGMA method (Unweighted Pair Group Method with Arithmetic mean method) (FIG. 10). Control-2 was also subjected to similar calculation (FIGS. 11 and 12). The softwares used were R 2.0.1 (http://www.r-project.org/) and affy package 1.5.8 (http://www.bioconductor.org).

HCT116-C9 = assay: Cross-resistance in E7070-resistant cell line, antiproliferative activity by MTT method; assay type: cell-based, human; details: Example 11, 72 hours
Experimental: An E7070-resistant cell line was used to assess the antiproliferative activities of E7820, LY186641, LY295501, LY-ASAP and CQS. HCT116-C9 was a substrain separated from human colon cancer-derived HCT116 (American Type Culture Collection, Manassas, Va., U.S.A.). This HCT116-C9 was cultured in the presence of E7070 while increasing the E7070 concentration by degrees, thereby obtaining E7070-resistant substrains HCT116-C9-C1 and HCT116-C9-C4 (Molecular Cancer Therapeutics, 2002, 1, 275-286).
Three cell lines, i.e., HCT116-C9, HCT116-C9-C1 and HCT116-C9-C4, were each seeded at 3000 cells/well onto a 96-well microplate (flat bottom) (50 μl/well). Twenty-four hours later, they were added with a 3-fold dilution series of each compound (50 μl/well). Seventy-two hours later, the antiproliferative activities were assessed by MTT method (Mossmann T., J. Immunol. Methods, 1983, 65, 55-63). The 50% growth inhibitory concentrations to the cancer cells were obtained by a least square method.
In exactly the same manner as in Example 10, an E7070-resistant cell line was used to assess the antiproliferative activities of LY573636 as well as those of E7070.

[1] = tested on: human non-small-cell lung cancer cell line (A549); assay: E7820 and erlotinib in subcutaneous transplant model of A549; assay type: in vivo; details: A549 s.c. in nude mouse; oral; E7820 50 mg/kg twice a day, erlotinib 100 mg/kg once a day, 2 weeks; Day 1 = first administration
Experimental: (§1) Human non-small-cell lung cancer cell line A549 (purchased from Dainippon Pharmaceutical) was cultured in RPMI1640 (containing 10% FBS) in a 5% carbon dioxide incubator at 37° C. to about 80% confluence, and the cells were collected with trypsin-EDTA. Using a phosphate buffer containing 50% matrigel, 5×10^7 cells/mL suspension was prepared, and 0.1 mL each of the resulting cell suspension was subcutaneously transplanted to a nude mouse at the side of its body. Seventeen days after the transplantation, E7820 and erlotinib were orally administered alone or in combination for 50 mg/kg twice a day for 2 weeks and for 100 mg/kg once a day for 2 weeks, respectively. The major and minor axes of tumors were measured with Digimatic caliper (Mitsutoyo), and tumor volumes and relative tumor volumes were calculated according to the following formulae.
(§2) Tumor Volume TV=Major axis of tumor(mm)×(Minor axis of tumor)^2(mm^2)/2
(§3) Relative Tumor Volume RTV=Tumor volume on measurement day/Tumor volume on the first administration day

[2] = tested on: human non-small-cell lung cancer cell line (PC9); assay: E7820 and gefitinib in subcutaneous transplant model of PC9; assay type: in vivo; details: PC9 s.c. in nude mouse; oral; E7820 50 mg/kg twice a day, gefitinib 75 mg/kg once a day, 2 weeks; Day 1 = first administration
Experimental: Using a phosphate buffer, 5×10^7 cells/mL suspension was prepared, and 0.1 mL each of the resulting cell suspension was subcutaneously transplanted to a nude mouse at the side of its body. Eight days after the transplantation, E7820 and gefitinib were orally administered alone or in combination for 50 mg/kg twice a day for 2 weeks and for 75 mg/kg once a day for 2 weeks, respectively. The major and minor axes of tumors were measured with Digimatic caliper (Mitsutoyo), and tumor volumes and relative tumor volumes were calculated according to the following formulae.
as §2, §3

[3] = tested on: human non-small-cell lung cancer cell line (A549); assay: E7820 and gefitinib in subcutaneous transplant model of A549; assay type: in vivo; details: A549 s.c. in nude mouse; oral; E7820 50 mg/kg twice a day, gefitinib 75 mg/kg once a day, 3 weeks; Day 1 = first administration
Experimental: as §1, with “body. Ten” for “body. Seventeen”, “and gefitinib” for “and erlotinib”, “for 3” for “for 2”, “for 75” for “for 100”
Tumor Volume TV=Major axis of tumor(mm)×(minor axis of tumor)^2(mm^2)/2
as §3

[4] = tested on: human colon cancer cell line (WiDr); assay: E7820 and cetuximab in subcutaneous transplant model of WiDr; assay type: in vivo; details: WiDr s.c. in nude mouse; E7820 oral 50 mg/kg twice a day, cetuximab i.p. 100 mg/kg twice a week, 2 weeks; Day 1 = first administration
Experimental: Human colon cancer cell line WiDr (obtained from Dainippon Pharmaceutical) was cultured in RPMI1640 (containing 10% FBS) in a 5% carbon dioxide incubator at 37° C. to about 80% confluence, and the cells were collected with trypsin-EDTA. Using a phosphate buffer, 5×10^7 cells/mL suspension was prepared, and 0.1 mL each of the resulting cell suspension was subcutaneously transplanted to a nude mouse at the side of its body.

[5] = tested on: human renal cancer cell line (ACHN); assay: E7820 and cetuximab in subcutaneous transplant model of ACHN; assay type: in vivo; details: ACHN s.c. in nude mouse; E7820 oral 50 mg/kg twice a day, cetuximab i.p. 100 mg/kg twice a week, 2 weeks; Day 1 = first administration
Experimental: Human renal cancer cell line ACHN (obtained from Dainippon Pharmaceutical) was cultured in RPMI1640 (containing 10% FBS) in a 5% carbon dioxide incubator at 37° C. to about 80% confluence, and the cells were collected with trypsin-EDTA. Using a phosphate buffer, 1×10^8 cells/mL suspension was prepared, and 0.1 mL each of the resulting cell suspension was subcutaneously transplanted to a nude mouse at the side of its body.
Tumor Volume TV=Major axis of tumor(mm)×(Minor axis of tumor)^2 (mm^2)/2

## Nc1ccc(S(=O)(=O)Nc2cnc3c(Cl)cccc3n2)cc1 [CQS, 2-sulfanylamide-5-chloroquinoxaline]
HCT116 cells
  similarity of changes in gene expression (cosine correlation, cluster analysis) among E7070, E7820, LY186641, LY295501, LY573636 and CQS: very similar genetic alterations

## NS(=O)(=O)c1ccc(S(=O)(=O)Nc2cccc3c(Cl)c[nH]c23)cc1 [E7070, N-(3-chloro-1H-indole-7-yl)-4-sulfamoylbenzenesulfonamide]
HCT116 cells
  similarity of changes in gene expression (cosine correlation, cluster analysis) among E7070, E7820, LY186641, LY295501, LY573636 and CQS: very similar genetic alterations
HCT116-C9
  pIC50: 6.90

## C#Cc1cccc(Nc2ncnc3cc(OCCOC)c(OCCOC)cc23)c1 [Erlotinib, 4-(3-ethynylphenylamino)-6,7-bis(2-methoxyethoxy)-quinazoline, reference compound]
[1]
  Relative tumor volume on Day 15 Average ± standard deviation: 1.94 ± 0.19

## COc1cc2ncnc(Nc3ccc(F)c(Cl)c3)c2cc1OCCCN1CCOCC1 [Gefitinib, 4-(3-chloro-4-fluorophenylamino)-7-methoxy-6-(3-(4-morpholino)propoxy-quinazoline), reference compound]
[2]
  Relative tumor volume on Day 15 Average ± standard deviation: 0.36 ± 0.12
[3]
  Relative tumor volume on Day 22 Average ± standard deviation: 2.26 ± 0.59

## Cc1ccc(NS(=O)(=O)c2cccc(C#N)c2)c2[nH]cc(C#N)c12 [E7820, N-(3-cyano-4-methyl-1H-indole-7-yl)-3-cyanobenzenesulfonamide]
[2]
  Relative tumor volume on Day 15 Average ± standard deviation: 2.57 ± 0.41
[3]
  Relative tumor volume on Day 22 Average ± standard deviation: 3.69 ± 0.68
[1]
  Relative tumor volume on Day 15 Average ± standard deviation: 2.62 ± 0.07
HCT116 cells
  similarity of changes in gene expression (cosine correlation, cluster analysis) among E7070, E7820, LY186641, LY295501, LY573636 and CQS: very similar genetic alterations
[4]
  Relative tumor volume on Day 15 Average ± standard deviation: 3.3 ± 0.6
[5]
  Relative tumor volume on Day 15 Average ± standard deviation: 1.3 ± 0.2

## O=C(NS(=O)(=O)c1ccc(Br)s1)c1ccc(Cl)cc1Cl [LY573636, N-(2,4-dichlorobenzoyl)-5-bromothiophene-2-sulfonamide]
HCT116 cells
  similarity of changes in gene expression (cosine correlation, cluster analysis) among E7070, E7820, LY186641, LY295501, LY573636 and CQS: very similar genetic alterations

## O=C(Nc1ccc(Cl)c(Cl)c1)NS(=O)(=O)c1ccc2c(c1)CCO2 [LY295501, N-[[(3,4-dichlorophenyl)amino]carbonyl]-2,3-dihydrobenzofuran-5-sulfonamide]
HCT116 cells
  similarity of changes in gene expression (cosine correlation, cluster analysis) among E7070, E7820, LY186641, LY295501, LY573636 and CQS: very similar genetic alterations

## O=C(Nc1ccc(Cl)cc1)NS(=O)(=O)c1ccc2c(c1)CCC2 [LY186641, N-[[(4-chlorophenyl)amino]carbonyl]-2,3-dihydro-1H-indene-5-sulfonamide]
HCT116 cells
  similarity of changes in gene expression (cosine correlation, cluster analysis) among E7070, E7820, LY186641, LY295501, LY573636 and CQS: very similar genetic alterations
